PubChem BioAssay AID1919016 (Molecular Pharmacology Branch, DTP, NCI, 2023)
Where “and” joins values, the source holds several entries; their conditions need not be identical. Identical values can stand only once. Each block holds one molecule with its values, some of them ahead of it.

System: NCI-H196 complex spheroid growth, percent test/control
Test: Anticancer human tumor NCI-H196 cell line growth inhibition [AhR];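 further: seven days of drug exposure starting three days after plating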;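 on viability, T/C: 100% = DMSO vehicle control wells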
Details: for viability, T/C: stronger effect = lower value
How it was run: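 Spheroids combined tumor cells with HUVEC endothelial cells and human MSCs as stroma. AhR antagonists were paired with standard or investigational drugs, each dosed in half-log steps down from near clinical Cmax, or from 10 microM where Cmax was unknown.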

[1] = curve of first compound, second compound 0.1 µM
[2] = curve of first compound, second compound 0.316 µM
[3] = curve of first compound, second compound 1 µM
[4] = curve of first compound, second compound 3.16 µM
[5] = curve of first compound, second compound 10 µM
[6] = second compound 0.1 µM, first compound 0.0316 µM
[7] = second compound 0.1 µM, first compound 0.1 µM
[8] = second compound 0.1 µM, first compound 0.316 µM
[9] = second compound 0.1 µM, first compound 1 µM
[10] = second compound 0.1 µM, first compound 3.16 µM
[11] = second compound 0.1 µM, first compound 10 µM
[12] = second compound 0.316 µM, first compound 0.0316 µM
[13] = second compound 0.316 µM, first compound 0.1 µM
[14] = second compound 0.316 µM, first compound 0.316 µM
[15] = second compound 0.316 µM, first compound 1 µM
[16] = second compound 0.316 µM, first compound 3.16 µM
[17] = second compound 0.316 µM, first compound 10 µM
[18] = second compound 1 µM, first compound 0.0316 µM
[19] = second compound 1 µM, first compound 0.1 µM
[20] = second compound 1 µM, first compound 0.316 µM
[21] = second compound 1 µM, first compound 1 µM
[22] = second compound 1 µM, first compound 3.16 µM
[23] = second compound 1 µM, first compound 10 µM
[24] = second compound 3.16 µM, first compound 0.0316 µM
[25] = second compound 3.16 µM, first compound 0.1 µM
[26] = second compound 3.16 µM, first compound 0.316 µM
[27] = second compound 3.16 µM, first compound 1 µM
[28] = second compound 3.16 µM, first compound 3.16 µM
[29] = second compound 3.16 µM, first compound 10 µM
[30] = second compound 10 µM, first compound 0.0316 µM
[31] = second compound 10 µM, first compound 0.1 µM
[32] = second compound 10 µM, first compound 0.316 µM
[33] = second compound 10 µM, first compound 1 µM
[34] = second compound 10 µM, first compound 3.16 µM
[35] = second compound 10 µM, first compound 10 µM

IC50 [1]: > 10 µM
IC50 [2]: > 10 µM
IC50 [3]: > 10 µM
IC50 [4]: > 10 µM
IC50 [5]: > 10 µM
SMILES: CC1(C)CCC(CN2CCN(c3ccc(C(=O)NS(=O)(=O)c4ccc(NCC5CCOCC5)c([N+](=O)[O-])c4)c(Oc4cnc5[nH]ccc5c4)c3)CC2)=C(c2ccc(Cl)cc2)C1 + CC(CO)NC(=O)c1cc(-c2ccc(Cl)cc2)nn(-c2cnn(C)c2)c1=O
viability, T/C [6]: 99.8%
viability, T/C [7]: 100%
viability, T/C [8]: 98.9%
viability, T/C [9]: 98.2%
viability, T/C [10]: 106%
viability, T/C [11]: 104%
viability, T/C [12]: 100%
viability, T/C [13]: 101%
viability, T/C [14]: 100%
viability, T/C [15]: 101%
viability, T/C [16]: 103%
viability, T/C [17]: 86.9%
viability, T/C [18]: 99.7%
viability, T/C [19]: 98.8%
viability, T/C [20]: 96.5%
viability, T/C [21]: 109%
viability, T/C [22]: 106%
viability, T/C [23]: 104%
viability, T/C [24]: 98.8%
viability, T/C [25]: 101%
viability, T/C [26]: 108%
viability, T/C [27]: 108%
viability, T/C [28]: 113%
viability, T/C [29]: 99.3%
viability, T/C [30]: 104%
viability, T/C [31]: 113%
viability, T/C [32]: 99.9%
viability, T/C [33]: 115%
viability, T/C [34]: 116%
viability, T/C [35]: 96%

IC50 [1]: > 10 µM
IC50 [2]: > 10 µM
IC50 [3]: > 10 µM
IC50 [4]: > 10 µM
IC50 [5]: > 10 µM
SMILES: CC1COCCN1c1cc(C2(S(C)(=N)=O)CC2)nc(-c2ccnc3[nH]ccc23)n1 (stereo unspecified) + Cc1ccccc1N=Nc1ccc(NC(=O)c2ccnn2C)c(C)c1
viability, T/C [6]: 98.5%
viability, T/C [7]: 101%
viability, T/C [8]: 98.8%
viability, T/C [9]: 101%
viability, T/C [10]: 81.5%
viability, T/C [11]: 69.7%
viability, T/C [12]: 99.3%
viability, T/C [13]: 102%
viability, T/C [14]: 99.2%
viability, T/C [15]: 92.5%
viability, T/C [16]: 80.5%
viability, T/C [17]: 72.6%
viability, T/C [18]: 96.3%
viability, T/C [19]: 104%
viability, T/C [20]: 101%
viability, T/C [21]: 94%
viability, T/C [22]: 87.7%
viability, T/C [23]: 70%
viability, T/C [24]: 96.2%
viability, T/C [25]: 99.1%
viability, T/C [26]: 97.4%
viability, T/C [27]: 88.6%
viability, T/C [28]: 81.8%
viability, T/C [29]: 74%
viability, T/C [30]: 85.7%
viability, T/C [31]: 93.1%
viability, T/C [32]: 101%
viability, T/C [33]: 89.7%
viability, T/C [34]: 78.3%
viability, T/C [35]: 76.6%

IC50 (curve of compound): > 10 µM
SMILES: NS(=O)(=O)OCC1CC(n2ccc3c(NC4CCc5ccccc54)ncnc32)CC1O (stereo unspecified)
viability, T/C (compound 0.0316 µM): 78.8% and 89.8% and 79.4%
viability, T/C (compound 0.1 µM): 71.8% and 85.1% and 80.3%
viability, T/C (compound 0.316 µM): 92% and 82% and 79.9%
viability, T/C (compound 1 µM): 52.6% and 59.9% and 65.8%
viability, T/C (compound 3.16 µM): 74.1% and 65.6% and 55.6%
viability, T/C (compound 10 µM): 69.5% and 70.9% and 55.7%

IC50 (curve of compound): > 0.1 µM
SMILES: Cn1ncnc1C1c2n[nH]c(=O)c3cc(F)cc(c23)NC1c1ccc(F)cc1 (stereo unspecified)
viability, T/C (compound 0.000316 µM): 120% and 100% and 104%
viability, T/C (compound 0.001 µM): 104% and 99.4% and 98.5%
viability, T/C (compound 0.00316 µM): 114% and 102% and 99.6%
viability, T/C (compound 0.01 µM): 92.6% and 105% and 106%
viability, T/C (compound 0.0316 µM): 94.1% and 106% and 103%
viability, T/C (compound 0.1 µM): 114% and 102% and 104%

IC50 (curve of compound): > 10 µM
SMILES: CC1COCCN1c1cc(C2(S(C)(=N)=O)CC2)nc(-c2ccnc3[nH]ccc23)n1 (stereo unspecified)
viability, T/C (compound 0.0316 µM): 99.9% and 98.5% and 104%
viability, T/C (compound 0.1 µM): 100% and 104% and 96%
viability, T/C (compound 0.316 µM): 104% (2×) and 95.2%
viability, T/C (compound 1 µM): 88% and 95.2% and 97.4%
viability, T/C (compound 3.16 µM): 97.7% and 93.7% and 85%
viability, T/C (compound 10 µM): 69.4% and 81% and 77.6%
